Drawing on US20260217672A1, “BENZAMIDE COMPOUNDS FOR TREATMENT OF BACTERIAL INFECTIONS” (Hoffmann-La Roche Inc., priority 2022, published 2026), this text covers MIC for 22 molecules.

Test [1] concerns Klebsiella pneumonia ATCC 43816. Nature of the test: Minimal Inhibitory Concentration (MIC) broth dilution assay. The class given is cell-based. Conditions: Klebsiella pneumoniae, ATCC43816, 20 h, read-out: MIC Klebsiella pneumoniae ATCC43816. How it is done: (§1) The antibacterial activity of the compounds of the present invention was evaluated against the commonly used quality control strain Escherichia coli ATCC 25922 and the rifampin-resistant mutant strain Klebsiella pneumonia ATCC 43816. Both were originally derived from human clinical samples and are available from ATCC (American Type Culture Collection). The in vitro potency of compounds to inhibit Escherichia coli (ATCC 25922) and Klebsiella pneumonia (ATCC 43816) growth was assessed by the MIC (Minimal Inhibitory Concentration) broth dilution method. Specifically compound dilutions were prepared from 10 mM DMSO stock solutions as follows: i) serial 2-fold dilution in 20 μL DMSO were prepared in a master plate (Greiner, Cat No: 651201), ii) 180 μL sterile distilled water was added to each aliquot and iii) 10 μL diluted compounds were transferred into a new assay plate (Costar, 3599).
(§2) Vials of each test microorganisms were maintained frozen in the vapor phase of a liquid nitrogen freezer. Single-use frozen vials of the two strains Escherichia coli ATCC 25922 (KWIKSTIK, 0335K) and Klebsiella pneumonia ATCC 43816, with predetermined CFU/mL, were taken out from the freezer, thawed at room temperature, and diluted in Cation-Adjusted Mueller Hinton Broth (CAMHB) to achieve a final inoculum of 5×10^5 CFU/mL. 90 μL bacteria containing broth was dispensed to the assay plate containing the pre-dispensed compound dilutions and mixed by pipetting 5 times.
(§3) Then the assay plates were incubated for 20 hours at 35° C. in ambient air. Following incubation, the MIC ([…]), the lowest concentration of drug that inhibits visible growth of the microorganism was read with the help of a magnification mirror and recorded.
On the technique in general: In broth dilution the organism is exposed to a series of concentrations in liquid medium.

Test [2] relates to Escherichia coli ATCC 25922. The description is as above. The class given is cell-based. Conditions: ATCC25922, 20 h, read-out: MIC Escherichia coli ATCC 25922. How it is done: as §1, §2, §3

The structures appear in SMILES notation. Values after ≈ are worked out from the molar mass of the structure shown.

Usually MIC stands for the lowest concentration that inhibits growth of the organism. For `NCCCNCc1cccc(C(=O)Nc2ccc(S(=O)(=O)N3CCN(c4cc(C(F)(F)F)cc(Cl)n4)C4CCC43)cc2)c1` (centres unmarked) [Example 023, 3-[(3-Aminopropylamino)methyl]-N-[4-[[5-[6-chloro-4-(trifluoromethyl)-2-pyridyl]-2,5-diazabicyclo[4.2.0]octan-2-yl]sulfonyl]phenyl]benzamide], the minimum inhibitory concentration (MIC) in test [1] and in test [2] was 4.2 µg/mL (≈ 6.59 µM) in each case.

Take `NCCCNCc1cccc(C(=O)Nc2ccc(S(=O)(=O)N3CCN(c4cc(C(F)(F)F)cc(Cl)n4)CC3)cc2)c1` [Example 024, 3-[(3-Aminopropylamino)methyl]-N-[4-[4-[6-chloro-4-(trifluoromethyl)-2-pyridyl]piperazin-1-yl]sulfonylphenyl]benzamide]: the MIC in test [1] is 0.96 µg/mL (≈ 1.57 µM); in test [2], 0.48 µg/mL (≈ 0.785 µM).

With `N#CN=S(=O)(c1ccc(NC(=O)c2cccc(CCNCCCN)c2)cc1)N1CCN(c2cc(C(F)(F)F)cc(Cl)n2)CC1` (stereo not drawn) [Example 025, 3-[2-(3-Aminopropylamino)ethyl]-N-[4-[S-[4-[6-chloro-4-(trifluoromethyl)-2-pyridyl]piperazin-1-yl]-N-cyano-sulfonimidoyl]phenyl]benzamide], the values for the minimum inhibitory concentration (MIC) in test [1] and in test [2] were 5.1 µg/mL (≈ 7.86 µM) and 1.3 µg/mL (≈ 2 µM), respectively.

In the case of `CN=S(=O)(c1ccc(NC(=O)c2cccc(CNCCCN)c2)cc1)N1CCN(c2cc(C(F)(F)F)cc(Cl)n2)CC1` (stereo not drawn) [Example 026, 3-[(3-aminopropylamino)methyl]-N-[4-[S-[4-[6-chloro-4-(trifluoromethyl)-2-pyridyl]piperazin-1-yl]-N-methyl-sulfonimidoyl]phenyl]benzamide], the figures for the MIC in test [1] and in test [2] were 7.8 µg/mL (≈ 12.5 µM) and 3.9 µg/mL (≈ 6.25 µM), respectively.

Consider `COc1cc(NC(=O)c2cccc(CNCCCN)c2)ccc1S(=O)(=O)N1CCN(c2cc(C(F)(F)F)cc(Cl)n2)CC1` [Example 027, 3-[(3-Aminopropylamino)methyl]-N-[4-[4-[6-chloro-4-(trifluoromethyl)-2-pyridyl]piperazin-1-yl]sulfonyl-3-methoxy-phenyl]benzamide], for which the MIC in test [1] and in test [2] was 4 µg/mL (≈ 6.24 µM) throughout.

With `NCCCNCc1cccc(C(=O)Nc2ccc(S(=O)(=O)N3CCN(c4cc(C(F)(F)F)cc(Cl)n4)CC3)c(O)c2)c1` [Example 028, 3-[(3-Aminopropylamino)methyl]-N-[4-[4-[6-chloro-4-(trifluoromethyl)-2-pyridyl]piperazin-1-yl]sulfonyl-3-hydroxy-phenyl]benzamide], the MIC in test [1] is 9.3 µg/mL (≈ 14.8 µM); in test [2], 4.6 µg/mL (≈ 7.34 µM).

Take `NCCCNCc1ccc(C(=O)Nc2ccc(S(=O)(=O)N3CCN(c4cc(C(F)(F)F)cc(Cl)n4)CC3)cn2)cc1` [Example 029, 4-[(3-Aminopropylamino)methyl]-N-[5-[4-[6-chloro-4-(trifluoromethyl)-2-pyridyl]piperazin-1-yl]sulfonyl-2-pyridyl]benzamide]: the MIC in test [1] stood at 3.8 µg/mL (≈ 6.21 µM); in test [2] it was 1.9 µg/mL (≈ 3.1 µM).

In the case of `COc1cc(S(=O)(=O)N2CCN(c3cc(C(F)(F)F)cc(Cl)n3)CC2)ccc1NC(=O)c1cccc(CNCCCN)c1` [Example 030, 3-[(3-Aminopropylamino)methyl]-N-[4-[4-[6-chloro-4-(trifluoromethyl)-2-pyridyl]piperazin-1-yl]sulfonyl-2-methoxy-phenyl]benzamide], the MIC in test [1] worked out at 8 µg/mL (≈ 12.5 µM); in test [2], 4 µg/mL (≈ 6.24 µM).

Regarding `NCCCNCc1cccc(C(=O)Nc2ccc(S(=O)(=O)N3CCN(c4cc(C(F)(F)F)cc(Cl)n4)CC3)cc2O)c1` [Example 031, 3-[(3-Aminopropylamino)methyl]-N-[4-[4-[6-chloro-4-(trifluoromethyl)-2-pyridyl]piperazin-1-yl]sulfonyl-2-hydroxy-phenyl]benzamide], the MIC in test [1] and in test [2] was 3.9 µg/mL (≈ 6.22 µM) in each case.

`Cn1cc2c(n1)CN(C(=O)Nc1ccc(S(=O)(=O)N3CCN(c4cc(C(F)(F)F)cc(Cl)n4)CC3)cc1)C2` [Example 032, N-[4-[4-[6-chloro-4-(trifluoromethyl)-2-pyridyl]piperazin-1-yl]sulfonylphenyl]-2-methyl-4,6-dihydropyrrolo[3,4-c]pyrazole-5-carboxamide]: the MIC in test [1] and in test [2] was 7.1 µg/mL (≈ 12.5 µM) throughout.

Consider `Cn1ncc2c1CN(C(=O)Nc1ccc(S(=O)(=O)N3CCN(c4cc(C(F)(F)F)cc(Cl)n4)CC3)cc1)C2` [Example 033, N-[4-[4-[6-chloro-4-(trifluoromethyl)-2-pyridyl]piperazin-1-yl]sulfonylphenyl]-1-methyl-4,6-dihydropyrrolo[3,4-c]pyrazole-5-carboxamide], for which the MIC in test [1] and in test [2] was 3.6 µg/mL (≈ 6.32 µM) throughout.

In the case of `Cn1ncc(C(=O)N2CCc3cc(S(=O)(=O)N4CCN(c5cc(C(F)(F)F)cc(Cl)n5)CC4)ccc32)c1C(=O)O` [Example 035, 4-[5-[4-[6-Chloro-4-(trifluoromethyl)-2-pyridyl]piperazin-1-yl]sulfonylindoline-1-carbonyl]-2-methyl-pyrazole-3-carboxylic acid], the MIC was found to be 7.5 µg/mL (≈ 12.5 µM) in test [1] and 3.7 µg/mL (≈ 6.18 µM) in test [2].

Regarding `O=C(c1cnn(C2CNC2)c1)N1CCc2cc(S(=O)(=O)N3CCN(c4cc(C(F)(F)F)cc(Cl)n4)CC3)ccc21` [Example 036, [1-(Azetidin-3-yl)pyrazol-4-yl]-[5-[4-[6-chloro-4-(trifluoromethyl)-2-pyridyl]piperazin-1-yl]sulfonylindolin-1-yl]methanone], the MIC was 7.4 µg/mL (≈ 12.4 µM) in test [1] and 3.7 µg/mL (≈ 6.21 µM) in test [2].

As for `NCCCn1cc(C(=O)N2CCc3cc(S(=O)(=O)N4CCN(c5cc(C(F)(F)F)cc(Cl)n5)CC4)ccc32)cn1` [Example 037, [1-(3-Aminopropyl)pyrazol-4-yl]-[5-[4-[6-chloro-4-(trifluoromethyl)-2-pyridyl]piperazin-1-yl]sulfonylindolin-1-yl]methanone], the MIC in test [1] worked out at 7.5 µg/mL (≈ 12.5 µM); in test [2] it was 3.7 µg/mL (≈ 6.19 µM).

In the case of `O=C(c1cnn2c1CNCC2)N1CCc2cc(S(=O)(=O)N3CCN(c4cc(C(F)(F)F)cc(Cl)n4)CC3)ccc21` [Example 038, [5-[4-[6-Chloro-4-(trifluoromethyl)-2-pyridyl]piperazin-1-yl]sulfonylindolin-1-yl]-(4,5,6,7-tetrahydropyrazolo[1,5-a]pyrazin-3-yl)methanone], the MIC was found to be 7.4 µg/mL (≈ 12.4 µM) in test [1] and 3.7 µg/mL (≈ 6.21 µM) in test [2].

As to `O=C(CN1CCNCC1)Nc1ccc(S(=O)(=O)N2CCN(c3cc(C(F)(F)F)cc(Cl)n3)CC2)cc1` [Example 040, N-[4-[4-[6-chloro-4-(trifluoromethyl)-2-pyridyl]piperazin-1-yl]sulfonylphenyl]-2-piperazin-1-yl-acetamide], the values for the minimal inhibitory concentration (MIC) in test [1] and in test [2] were 8.3 µg/mL (≈ 15.2 µM) and 2.1 µg/mL (≈ 3.84 µM), respectively.

Turning to `O=C(O)c1ccccc1C(=O)N1CCc2cc(S(=O)(=O)N3CCN(c4cc(C(F)(F)F)cc(Cl)n4)CC3)ccc21` [Example 042, 2-[5-[4-[6-Chloro-4-(trifluoromethyl)-2-pyridyl]piperazin-1-yl]sulfonylindoline-1-carbonyl]benzoic acid], the MIC in test [1] is 2 µg/mL (≈ 3.36 µM); in test [2] it was 0.99 µg/mL (≈ 1.66 µM).

Regarding `Cc1cc(C(F)(F)F)nc(N2CCN(S(=O)(=O)c3ccc(NC(=O)c4cnc5c(c4)CNC5)cc3)CC2)n1` [Example 044, N-[4-[4-[4-methyl-6-(trifluoromethyl)pyrimidin-2-yl]piperazin-1-yl]sulfonylphenyl]-6,7-dihydro-5H-pyrrolo[3,4-b]pyridine-3-carboxamide], the minimal inhibitory concentration (MIC) in test [1] is 1.8 µg/mL (≈ 3.29 µM); in test [2], 0.91 µg/mL (≈ 1.66 µM).

For the molecule `Cc1cc(C(F)(F)F)cc(N2CCN(S(=O)(=O)c3ccc(NC(=O)c4cnc5c(c4)CNC5)cc3)CC2)n1` [Example 045, N-[4-[4-[6-methyl-4-(trifluoromethyl)-2-pyridyl]piperazin-1-yl]sulfonylphenyl]-6,7-dihydro-5H-pyrrolo[3,4-b]pyridine-3-carboxamide], the figures for the MIC in test [1] and in test [2] were 3.6 µg/mL (≈ 6.59 µM) and 0.91 µg/mL (≈ 1.66 µM), respectively.

For `O=C(Nc1ccc(S(=O)(=O)N2CCN(c3cc(C(F)(F)F)cc(Cl)n3)CC2)cc1)c1ccc2c(c1)CNC2` [Example 046, N-[4-[4-[6-chloro-4-(trifluoromethyl)-2-pyridyl]piperazin-1-yl]sulfonylphenyl]isoindoline-5-carboxamide], the MIC in test [1] and in test [2] was 0.47 µg/mL (≈ 0.83 µM) in each case.

Consider `O=C(Nc1ccc(S(=O)(=O)N2CCN(c3cc(C(F)(F)F)cc(Cl)n3)CC2)cc1)c1cccc(N2CC3CC2CN3)c1` (centres unmarked) [Example 047, N-[4-[4-[6-chloro-4-(trifluoromethyl)-2-pyridyl]piperazin-1-yl]sulfonylphenyl]-3-(2,5-diazabicyclo[2.2.1]heptan-2-yl)benzamide], for which the figures for the minimum inhibitory concentration (MIC) in test [1] and in test [2] were 2.3 µg/mL (≈ 3.7 µM) and 1.1 µg/mL (≈ 1.77 µM), respectively.

In the case of `NCCOc1cccc(C(=O)Nc2ccc(S(=O)(=O)N3CCN(c4cc(C(F)(F)F)cc(Cl)n4)CC3)cc2)c1` [Example 048, 3-(2-Aminoethoxy)-N-[4-[4-[6-chloro-4-(trifluoromethyl)-2-pyridyl]piperazin-1-yl]sulfonylphenyl]benzamide], the minimal inhibitory concentration (MIC) turned out to be 0.97 µg/mL (≈ 1.66 µM) in test [1] and 0.48 µg/mL (≈ 0.822 µM) in test [2].
